Experimental data from patent US10864296B2, “Polypeptide and hyaluronic acid coatings” (INSTITUT NATIONAL DE LA SANTE ET DE LA RECHERCHE MEDICALE …, priority 2017, dated 2020).
Where “and” joins values, the source holds several entries; their conditions need not be identical. Equal entries are not always repeated.

Legend:
S. aureus [1] = assay: Minimal inhibitory concentration (MIC) of PAR in solution, 24 h in MHB medium with S. aureus; assay type: cell-based, Staphylococcus aureus; details: for times less active than PAR100 or PAR200 chains (from MICs in solution): per chain; for bacterial growth inhibition in solution: PAR 1 μM
Protocol: PAR with 10, 30, 100 or 200 arginine residues per chain were tested. Each PAR was incubated 24 h at 37° C. in 300 μL of MHB medium with S. aureus (A620=0.001). Pathogen growth of 0% corresponds to medium with antibiotics (and without PAR) and 100% to medium without PAR. Each value corresponds to the mean value of 3 individual experiments (3 samples per experiment and condition) and error bars correspond to standard deviations. For each concentration, the first column represents the normalized pathogen growth of S. aureus for PAR10, the 2nd column for PAR30, the third column for PAR100 and the fourth for PAR200.
Staphylococcus aureus (S. aureus, ATCC 25923) strains were used to assess the antibacterial properties of the test samples. Bacterial strain was cultured aerobically at 37° C. in a Mueller Hinton Broth (MHB) medium (Merck, Germany), pH 7.4. One colony was transferred to 10 mL of MHB medium and incubated at 37° C. for 20 h, to provide a final density of 10^6 CFU·mL^−1. To obtain bacteria in the mid logarithmic phase of growth, the absorbance at 620 nm of overnight culture was adjusted of 0.001.
In the following the inventors of the present invention wanted to further elucidate the underlying mechanism that confer to the coatings of the invention the strong inhibitory property on the surface and in the supernatant. As an example the (PAR30/HA)24 coating was further investigated. Accordingly, the minimal inhibitory concentration (MIC) of PAR in solution was determined using bacterial assay as described in Experimental Section. […] Finally for PAR at concentrations of 0.01 mg·mL^−1, inhibition of 100% was shown only for PAR30. Longer or shorter PAR chains (PAR10, PAR100 or PAR200) inhibits only partially (less than 40%) S. aureus growth. […] This reasoning is valid when PAR concentration values are expressed in mass (mg·mL^−1) thus it is related to the number of arginine monomers. However when the graph is plotted with concentrations in μM (and thus proportional in number of chains), which means that concentration is related to number of chains, different interpretation can be made (Data not shown). […] Moreover the MIC100 values obtained for PAR30, PAR100 or PAR200 ranges at very low concentrations (between 1 and 2 μM) which is remarkable when compared to well-known antimicrobial peptides (for example 30 μM for cateslytin with S. aureus, see Adv. Funct. Mater. 2013, 23, 4801-4809). PAR is thus a powerful candidate to fight against S. aureus.

[2] = Fluorescence recovery after photobleaching (FRAP) of PAR-FITC in (PAR/HA)24 multilayers; assay type: physicochemical; details: PAR-FITC in (PAR/HA)24 multilayer, hydrochloride
Protocol: The diffusion coefficient, D, and the proportion of mobile molecules, p, was measured for (PAR/HA)24 multilayers containing PAR-FITC by performing photobleaching experiments (FRAP, Fluorescence Recovery After Photobleaching).
A glass slide coated with the multilayer was introduced in a home-made sample holder and immerged in 200 μl of Tris-NaCl buffer. One circular regions (4.4 μm in radius and referred as “R4” in an image of 35 μm×35 μm or 10.6 μm in radius and referred as “R10” in an image of 85 μm×85 μm) were exposed for 700 msec to the laser light set at its maximum power (λ=488 nm). Then, the recovery of the fluorescence in the bleached area was observed over time. Observations were carried out with a Zeiss LSM 710 microscope (Heidelberg, Germany) using a 20× objective (Zeiss, Plan Apochromat).
Then the inventors investigated if the bactericidal activity of the PAR30/HA multilayer is related to the mobility of these chains in the films. Indeed, it is known that the exponential character of a multilayer is related to the diffusion ability of at least one of its constituents in and out of the film during each deposition step. They first determined the mobility of the different chains, PAR10, PAR30, PAR100 and PAR200 in the (PAR/HA)24 multilayer by using FRAP method. […] Recovery of fluorescence appears very fast for PAR10 and PAR30 compare to PAR100 or PAR200. From these curves we can deduce the percentage of mobile chains over the timescale of the experiments. It clearly appears that PAR10 and PAR30 chains are more mobile (between 85 to 90% of mobile fraction) than the PAR100 (only 63% of mobile fraction). The largest chains PAR200 correspond to the slowest with about 12% of the population which is mobile (FIG. 8). Accordingly, the fraction of mobile chains dramatically decreases when the chain length increases from 30 to 100 or 200 residues.

[3] = Release of PAR-FITC from (PAR30/HA)24 into the supernatant; assay type: physicochemical; details: after 24 h, from (PAR30/HA)24 built with PAR-FITC, 37° C.
Protocol: For the first experiment, a multilayer coating (PAR30/HA)24 was built by using PAR-FITC. Release experiments were performed at 37° C. during 24 h in presence of MHB medium or a S. aureus/MHB solution (A620=0.001). 300 μL of mineral oil were added on the top of the supernatant to prevent any evaporation during the monitoring. The release of PAR-FITC in solution was performed by measuring the fluorescence of the supernatant over time with a spectrofluorimeter (SAFAS Genius XC spectrofluorimeter, Monaco) with excitation/emission wavelength of 488/517 nm. Three samples were studied for each conditions.
In view of the absence of specific properties of PAR30 in solution compared to shorter or longer PAR chains, the antimicrobial abilities of PAR30/HA films should be related to the film property by itself. In this context, the inventors investigated if the bactericidal property of the film is due to the release of PAR30 chains from the multilayer into the solution or if bacteria need to come in contact with the film to be killed. For this purpose two types of experiments were performed. Using fluorescently labelled PAR30 chains we first determined the release of PAR30 chains into the solution containing solely MH medium with and without S. aureus. […] Finally, we also performed an experiment where bacteria were brought in contact with a (PAR30/HA)24 film for 24 hours. […]

S. aureus [4] = details: Adv. Funct. Mater. 2013, 23, 4801-4809; cited from earlier work
[5] = PAR concentrations up to 0.04 mg·mL^−1

Substance | S. aureus growth inhibition in solution (in words) (S. aureus [1]; PAR 0.02 mg·mL^−1) | S. aureus growth inhibition in solution (in words) (S. aureus [1]; [5]) | concentration needed for a similar effect (about 90% inhibition) (S. aureus [1]; in solution, S. aureus) | times less active than PAR100 or PAR200 chains (from MICs in solution) (S. aureus [1]; hydrochloride) [times] | proportion of mobile PAR chains (mobile fraction) [2] | S. aureus growth inhibition in solution (S. aureus [1]; PAR 0.01 mg·mL^−1, hydrochloride) [%] | MIC90 (S. aureus [1]; in solution, S. aureus) | PAR30 released into solution [3] | bacterial growth inhibition in solution (S. aureus [1]) | S. aureus growth inhibition in solution (S. aureus [1]; PAR 0.02 mg·mL^−1) | MIC of a well-known antimicrobial peptide, compared with MIC100 of PAR (S. aureus [4]) [µM]
poly(I-arginine hydrochloride) [PAR10] | quasi total inhibition | totally inhibited | about 10 μM | 10 | ~90% |  |  |  |  |  | 
poly(I-arginine hydrochloride) [PAR30] | quasi total inhibition | totally inhibited | about 10 μM | 2 |  | 100 | about 2 μM | about 0.18 μM |  |  | 
poly(I-arginine hydrochloride) [PAR200] |  | totally inhibited |  |  | about 12% |  |  |  | about 90% | about 45% | 
poly(I-arginine hydrochloride) [PAR100] | quasi total inhibition | totally inhibited |  |  | 63% and 70% |  |  |  | about 90% |  | 
cateslytin |  |  |  |  |  |  |  |  |  |  | 30
